# According to patent US20020137929A1, “1 - (3-heterocyclylphenyl) isothiourea, -isourea, -guanidine and -amidine herbicidal agents” (Intellectual Property Department, BASF Aktiengesellschaft, priority 1998, published 2002):
# Columns and labels:
# GALAP (Galium) = test: Preemergence herbicidal evaluation; type: in vivo, Galium aparine; conditions: rated 4-5 weeks after treatment; for GALAP rating: preemergence, 0-9 scale
# How it was run: (§1)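 Scores use a 0–9 visual scale covering stand, vigor, malformation, size and chlorosis relative to controls, rated four to five weeks after treatment. Before emergence, soil-planted seeds were sprayed with compound in aqueous acetone at roughly 0.0156–0.500 kg/ha and held in the greenhouse.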
# ECHCG (Barnyardgrass) = test: Preemergence herbicidal evaluation; type: in vivo, Echinochloa crus-galli; conditions: rated 4-5 weeks after treatment; for ECHCG rating: preemergence, 0-9 scale
# How it was run: as §1
# ORYSAT (Rice, Tebonnet) [1] = test: Rice tolerance to post-transplant applications, flooded paddy conditions (Table IV); type: in vivo, Oryza sativa, (L.) Tebonnet; conditions: flooded paddy, post-transplant rice
# How it was run: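 Injury ratings (0–9 scale covering stand, vigor, malformation, size, chlorosis and overall appearance versus control) were made three to four weeks after treatment. Test material, about 0.0313 to 0.500 kg/ha a.i. in 50/50 v/v aqueous/acetone, was added to flood water 1.5 to 3 cm deep over 3 to 5 cm weeds and 1.5 to 2.5 leaf rice.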
# [2] = system: GLXMAW (Soybean, Williams); test: Preemergence herbicidal evaluation; type: in vivo, Glycine max, (L.) Merr. cv Williams; conditions: rated 4-5 weeks after treatment; for GLXMAW rating: preemergence, 0-9 scale
# How it was run: as §1
# MOOVA (Monochoria) = test: Postemergence weed control under flooded paddy conditions; type: in vivo, Monochoria vaginalis; conditions: postemergence weeds
# How it was run: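 Herbicidal effect is judged by eye on a 0–9 scale versus control, 3–4 weeks after dosing. Dosing is into flood water kept 1.5–3 cm over the soil, at about 0.0313–0.500 kg/ha in aqueous/acetone 50/50 v/v, on 3–5 cm weeds and 1.5–2.5-leaf rice seedlings.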
# [3] = system: IPOHE (Morningglory, Ivyleaf); test: Postemergence herbicidal evaluation; type: in vivo, Ipomoea hederacea; conditions: postemergence
# How it was run: (§2)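 Visual 0–9 rating versus control (stand, vigor, malformation, size, chlorosis, overall appearance), taken four to five weeks post-spray. Two-week-old seedlings received roughly 0.0156–0.500 kg/ha active in acetone/water (50/50) with 0.5% TWEEN 20 via nozzle at 40 psi.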
# ORYSAT (Rice, Tebonnet) [4] = test: Rice tolerance to post-transplant applications, flooded paddy conditions (Table III); type: in vivo, Oryza sativa, (L.) Tebonnet; conditions: post-transplant rice, flooded paddy, rated 3-4 weeks after treatment
# How it was run: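 Injury scored 0-9 by eye against untreated control, judging stand, vigor, malformation, size and chlorosis, three to four weeks after treatment. Compound in 50/50 aqueous/acetone, about 0.0313 to 0.500 kg/ha, was applied to paddy water (1.5 to 3 cm depth) three days after transplanting paired ten-day-old Tebonnet rice seedlings.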
# [5] = system: CHEAL (Lambsquarters, Common); test: Postemergence herbicidal evaluation; type: in vivo, Chenopodium album; conditions: postemergence
# How it was run: as §2
# [6] = Rate 0.0313 kg/ha, rated 3 to 4 weeks after treatment
# [7] = Rate 0.0625 kg/ha, rated 3 to 4 weeks after treatment
# [8] = Rate 0.1250 kg/ha, rated 3 to 4 weeks after treatment
# [9] = Rate 0.2500 kg/ha, rated 3 to 4 weeks after treatment
# [10] = rate 0.0313 kg/ha, 3-4 weeks after treatment
# [11] = rate 0.0625 kg/ha, 3-4 weeks after treatment
# [12] = rate 0.1250 kg/ha, 3-4 weeks after treatment
# [13] = rate 0.2500 kg/ha, 3-4 weeks after treatment
compound,measurement,setting,value
"C=CCN1C(=O)C(CC(=O)OCCF)SC1=Nc1cc(-n2c(=O)cc(C(F)(F)F)n(C)c2=O)c(F)cc1Cl (stereo not drawn) [Compound 86, 2-Fluoroethyl 3-allyl-2-{{2-chloro-5-[3,6-dihydro-3-methyl-2,6-dioxo-4-(trifluoromethyl)-1(2H)-pyrimidinyl]-4-fluorophenyl}imino}-4-oxo-5-thiazolidineacetate]",GALAP rating,GALAP (Galium); 0.0156 kg/ha,0.0
same,GALAP rating,GALAP (Galium); 0.0313 kg/ha,0.0
same,GALAP rating,GALAP (Galium); 0.0625 kg/ha,0.0
same,GALAP rating,GALAP (Galium); 0.1250 kg/ha,0.0
same,GALAP rating,GALAP (Galium); 0.2500 kg/ha,9.0
same,GALAP rating,GALAP (Galium); 0.5000 kg/ha,9.0
same,ECHCG rating,ECHCG (Barnyardgrass); 0.0156 kg/ha,0.0
same,ECHCG rating,ECHCG (Barnyardgrass); 0.0313 kg/ha,0.0
same,ECHCG rating,ECHCG (Barnyardgrass); 0.0625 kg/ha,0.0
same,ECHCG rating,ECHCG (Barnyardgrass); 0.1250 kg/ha,0.0
same,ECHCG rating,ECHCG (Barnyardgrass); 0.2500 kg/ha,0.0
same,ECHCG rating,ECHCG (Barnyardgrass); 0.5000 kg/ha,4.0
same,Herbicidal rating ORYSAT (rice tolerance),"ORYSAT (Rice, Tebonnet) [1]; [6]",3.0
same,Herbicidal rating ORYSAT (rice tolerance),"ORYSAT (Rice, Tebonnet) [1]; [7]",4.0
same,Herbicidal rating ORYSAT (rice tolerance),"ORYSAT (Rice, Tebonnet) [1]; [8]",4.0
same,Herbicidal rating ORYSAT (rice tolerance),"ORYSAT (Rice, Tebonnet) [1]; [9]",5.0
same,GLXMAW rating,[2]; 0.0156 kg/ha,0.0
same,GLXMAW rating,[2]; 0.0313 kg/ha,0.0
same,GLXMAW rating,[2]; 0.0625 kg/ha,0.0
same,GLXMAW rating,[2]; 0.1250 kg/ha,0.0
same,GLXMAW rating,[2]; 0.2500 kg/ha,4.0
same,GLXMAW rating,[2]; 0.5000 kg/ha,8.0
same,Herbicidal rating MOOVA,MOOVA (Monochoria); [6],9.0
same,Herbicidal rating MOOVA,MOOVA (Monochoria); [7],9.0
same,Herbicidal rating MOOVA,MOOVA (Monochoria); [8],9.0
same,Herbicidal rating MOOVA,MOOVA (Monochoria); [9],9.0
same,IPOHE herbicidal rating,[3]; rate 0.0156 kg/ha,9.0
same,IPOHE herbicidal rating,[3]; rate 0.0313 kg/ha,9.0
same,IPOHE herbicidal rating,[3]; rate 0.0625 kg/ha,9.0
same,IPOHE herbicidal rating,[3]; rate 0.1250 kg/ha,9.0
same,ORYSAT herbicidal effect rating (rice tolerance),"ORYSAT (Rice, Tebonnet) [4]; 0.0313 kg/ha",3.0
same,ORYSAT herbicidal effect rating (rice tolerance),"ORYSAT (Rice, Tebonnet) [4]; 0.0625 kg/ha",4.0
same,ORYSAT herbicidal effect rating (rice tolerance),"ORYSAT (Rice, Tebonnet) [4]; 0.1250 kg/ha",4.0
same,ORYSAT herbicidal effect rating (rice tolerance),"ORYSAT (Rice, Tebonnet) [4]; 0.2500 kg/ha",5.0
same,CHEAL herbicidal rating,[5]; rate 0.0156 kg/ha,9.0
same,CHEAL herbicidal rating,[5]; rate 0.0313 kg/ha,9.0
same,CHEAL herbicidal rating,[5]; rate 0.0625 kg/ha,9.0
same,CHEAL herbicidal rating,[5]; rate 0.1250 kg/ha,9.0
CCOC(=O)/C=C1/S/C(=N/c2cc(-n3c(=O)cc(C(F)(F)F)n(C)c3=O)c(F)cc2Cl)N(CC(=O)OCC)C1=O [Compound 14],GALAP preemergence herbicidal rating,GALAP (Galium); rate 0.0313 kg/ha,0.0
same,GALAP preemergence herbicidal rating,GALAP (Galium); rate 0.0625 kg/ha,0.0
same,GALAP preemergence herbicidal rating,GALAP (Galium); rate 0.1250 kg/ha,9.0
same,GALAP preemergence herbicidal rating,GALAP (Galium); rate 0.2500 kg/ha,9.0
same,ECHCG preemergence herbicidal rating,ECHCG (Barnyardgrass); rate 0.0313 kg/ha,0.0
same,ECHCG preemergence herbicidal rating,ECHCG (Barnyardgrass); rate 0.0625 kg/ha,0.0
same,ECHCG preemergence herbicidal rating,ECHCG (Barnyardgrass); rate 0.1250 kg/ha,1.0
same,ECHCG preemergence herbicidal rating,ECHCG (Barnyardgrass); rate 0.2500 kg/ha,3.0
same,ECHCG preemergence herbicidal rating,ECHCG (Barnyardgrass); rate 0.5000 kg/ha,6.0
same,Herbicidal rating ORYSAT (rice tolerance),"ORYSAT (Rice, Tebonnet) [1]; [10]",0.0
same,Herbicidal rating ORYSAT (rice tolerance),"ORYSAT (Rice, Tebonnet) [1]; [11]",0.3
same,Herbicidal rating ORYSAT (rice tolerance),"ORYSAT (Rice, Tebonnet) [1]; [12]",0.5
same,Herbicidal rating ORYSAT (rice tolerance),"ORYSAT (Rice, Tebonnet) [1]; [13]",0.0
same,GLXMAW preemergence herbicidal rating,[2]; rate 0.0313 kg/ha,0.0
same,GLXMAW preemergence herbicidal rating,[2]; rate 0.0625 kg/ha,0.0
same,GLXMAW preemergence herbicidal rating,[2]; rate 0.1250 kg/ha,2.0
same,GLXMAW preemergence herbicidal rating,[2]; rate 0.2500 kg/ha,3.0
same,GLXMAW preemergence herbicidal rating,[2]; rate 0.5000 kg/ha,6.0
same,Herbicidal rating MOOVA,MOOVA (Monochoria); [10],6.8
same,Herbicidal rating MOOVA,MOOVA (Monochoria); [11],6.8
same,Herbicidal rating MOOVA,MOOVA (Monochoria); [12],6.8
same,Herbicidal rating MOOVA,MOOVA (Monochoria); [13],4.5
same,IPOHE herbicidal rating,[3]; rate 0.0156 kg/ha,9.0
same,IPOHE herbicidal rating,[3]; rate 0.0313 kg/ha,9.0
same,IPOHE herbicidal rating,[3]; rate 0.0625 kg/ha,9.0
same,IPOHE herbicidal rating,[3]; rate 0.1250 kg/ha,9.0
same,Herbicidal rating ORYSAT (rice tolerance),"ORYSAT (Rice, Tebonnet) [4]; 0.0313 kg/ha",0.0
same,Herbicidal rating ORYSAT (rice tolerance),"ORYSAT (Rice, Tebonnet) [4]; 0.0625 kg/ha",0.5
same,Herbicidal rating ORYSAT (rice tolerance),"ORYSAT (Rice, Tebonnet) [4]; 0.1250 kg/ha",1.0
same,Herbicidal rating ORYSAT (rice tolerance),"ORYSAT (Rice, Tebonnet) [4]; 0.2500 kg/ha",0.0
same,CHEAL herbicidal rating,[5]; rate 0.0156 kg/ha,9.0
same,CHEAL herbicidal rating,[5]; rate 0.0313 kg/ha,9.0
same,CHEAL herbicidal rating,[5]; rate 0.0625 kg/ha,9.0
same,CHEAL herbicidal rating,[5]; rate 0.1250 kg/ha,9.0
